Test results: PubChem BioAssay AID330 (DTP/NCI, 2004)
Values joined by “and” are separate entries in the source; they are usually repeats but may differ in a detail not shown here. Equal entries are not always repeated. Inconclusive results and toxic doses are left out.

System: P388 leukemia ip, CD2F1 mice, survival T/C
Experiment: NCI In Vivo Anticancer Drug Screen. Data for tumor model P388 Leukemia (intraperitoneal) in CD2F1 (CDF1) mice
Settings: endpoint: median survival time, higher = longer survival
In short: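 Mice carrying the transplanted tumor received test compound or vehicle. Survival was recorded in each group, and the value is the treated-group measurement divided by that of the vehicle-treated control group.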

## COc1cc([C@@H]2c3cc4c(cc3[C@@H](OC3OC5COC(C)OC5C(O)C3O)[C@H]3COC(=O)[C@H]23)OCO4)cc(OC)c1O (stereo partly specified)
dose: 1.0 mg/kg/injection, schedule: Q01DX009 (ip), vehicle: saline
  T/C: 181 % of control
dose: 2.0 mg/kg/injection, schedule: Q01DX009 (ip), vehicle: saline
  T/C: 183 % of control and 217 % of control
dose: 4.0 mg/kg/injection, schedule: Q01DX001 (ip), vehicle: saline with Tween-80
  T/C: 153 % of control
dose: 4.0 mg/kg/injection, schedule: Q01DX009 (ip), vehicle: saline
  T/C: 241 % of control and 300 % of control
dose: 5.0 mg/kg/injection, schedule: Q04DX003 (ip), vehicle: saline with Tween-80
  T/C: 122 % of control
dose: 6.24 mg/kg/injection, schedule: Q04DX003 (ip), vehicle: water
  T/C: 177 % of control
dose: 6.48 mg/kg/injection, schedule: Q04DX003 (ip), vehicle: water
  T/C: 178 % of control and 219 % of control
dose: 7.78 mg/kg/injection, schedule: Q04DX003 (ip), vehicle: water
  T/C: 212 % of control
dose: 8.0 mg/kg/injection, schedule: Q01DX001 (ip), vehicle: saline with Tween-80
  T/C: 164 % of control
dose: 8.0 mg/kg/injection, schedule: Q01DX001 (ip), vehicle: saline
  T/C: 180 % of control
dose: 8.0 mg/kg/injection, schedule: Q01DX001 (ip), vehicle: water
  T/C: 162 % of control and 168 % of control
dose: 8.0 mg/kg/injection, schedule: Q08DX002 (ip), vehicle: saline
  T/C: 207 % of control
dose: 10.0 mg/kg/injection, schedule: Q04DX002 (ip), vehicle: suspension in saline
  T/C: 162 % of control
dose: 10.0 mg/kg/injection, schedule: Q04DX003 (ip), vehicle: saline with Tween-80
  T/C: 174 % of control and 190 % of control
dose: 10.4 mg/kg/injection, schedule: Q04DX003 (ip), vehicle: clinical formulation
  T/C: 247 % of control
dose: 10.4 mg/kg/injection, schedule: Q04DX003 (ip), vehicle: water
  T/C: 213 % of control
dose: 10.8 mg/kg/injection, schedule: Q04DX002 (ip), vehicle: water
  T/C: 243 % of control
dose: 10.8 mg/kg/injection, schedule: Q04DX003 (ip), vehicle: water
  T/C: 211 % of control and 281 % of control
dose: 12.0 mg/kg/injection, schedule: Q04DX003 (ip), vehicle: saline
  T/C: 211 % of control
dose: 13.0 mg/kg/injection, schedule: Q04DX002 (ip), vehicle: Klucel (hydroxypropylcellulose) (HPC)
  T/C: 240 % of control
dose: 13.0 mg/kg/injection, schedule: Q04DX003 (ip), vehicle: water
  T/C: 234 % of control
dose: 16.0 mg/kg/injection, schedule: Q08DX002 (ip), vehicle: saline
  T/C: 240 % of control
dose: 17.3 mg/kg/injection, schedule: Q04DX003 (ip), vehicle: clinical formulation
  T/C: 276 % of control
dose: 17.3 mg/kg/injection, schedule: Q04DX003 (ip), vehicle: water
  T/C: 272 % of control
dose: 18.0 mg/kg/injection, schedule: Q04DX002 (ip), vehicle: water
  T/C: 264 % of control
dose: 18.0 mg/kg/injection, schedule: Q04DX003 (ip), vehicle: Klucel (hydroxypropylcellulose) (HPC)
  T/C: 320 % of control and 576 % of control
dose: 20.0 mg/kg/injection, schedule: Q04DX002 (ip), vehicle: suspension in saline
  T/C: 167 % of control
dose: 20.0 mg/kg/injection, schedule: Q04DX003 (ip), vehicle: saline with Tween-80
  T/C: 183 % of control and 190 % of control
dose: 21.6 mg/kg/injection, schedule: Q04DX002 (ip), vehicle: Klucel (hydroxypropylcellulose) (HPC)
  T/C: 280 % of control
dose: 21.6 mg/kg/injection, schedule: Q04DX002 (ip), vehicle: water
  T/C: 235 % of control
dose: 21.6 mg/kg/injection, schedule: Q04DX003 (ip), vehicle: water
  T/C: 398 % of control
dose: 27.0 mg/kg/injection, schedule: Q04DX003 (ip), vehicle: Klucel (hydroxypropylcellulose) (HPC)
  T/C: 436 % of control and 567 % of control
dose: 28.8 mg/kg/injection, schedule: Q04DX003 (ip), vehicle: clinical formulation
  T/C: 419 % of control
dose: 28.8 mg/kg/injection, schedule: Q04DX003 (ip), vehicle: water
  T/C: 304 % of control
dose: 30.0 mg/kg/injection, schedule: Q04DX002 (ip), vehicle: water
  T/C: 441 % of control
dose: 30.0 mg/kg/injection, schedule: Q04DX003 (ip), vehicle: water
  T/C: 333 % of control and 358 % of control
dose: 32.0 mg/kg/injection, schedule: Q08DX002 (ip), vehicle: saline
  T/C: 285 % of control
dose: 36.0 mg/kg/injection, schedule: Q04DX002 (ip), vehicle: Klucel (hydroxypropylcellulose) (HPC)
  T/C: 290 % of control
dose: 36.0 mg/kg/injection, schedule: Q04DX002 (ip), vehicle: water
  T/C: 445 % of control
dose: 36.0 mg/kg/injection, schedule: Q04DX003 (ip), vehicle: water
  T/C: 416 % of control
dose: 40.0 mg/kg/injection, schedule: Q04DX002 (ip), vehicle: suspension in saline
  T/C: 218 % of control
dose: 40.0 mg/kg/injection, schedule: Q04DX003 (ip), vehicle: Klucel (hydroxypropylcellulose) (HPC)
  T/C: 436 % of control and 576 % of control
dose: 40.0 mg/kg/injection, schedule: Q04DX003 (ip), vehicle: saline with Tween-80
  T/C: 223 % of control and 257 % of control
dose: 50.0 mg/kg/injection, schedule: Q04DX002 (ip), vehicle: water
  T/C: 372 % of control
dose: 60.0 mg/kg/injection, schedule: Q04DX002 (ip), vehicle: water
  T/C: 354 % of control
dose: 60.0 mg/kg/injection, schedule: Q04DX003 (ip), vehicle: Klucel (hydroxypropylcellulose) (HPC)
  T/C: 576 % of control
dose: 60.0 mg/kg/injection, schedule: Q04DX003 (ip), vehicle: water
  T/C: 416 % of control
dose: 64.0 mg/kg/injection, schedule: Q01DX005 (ip), vehicle: saline
  T/C: 105 % of control and 86 % of control and 88 % of control
dose: 64.0 mg/kg/injection, schedule: Q08DX002 (ip), vehicle: saline
  T/C: 247 % of control
dose: 83.3 mg/kg/injection, schedule: Q04DX002 (ip), vehicle: water
  T/C: 441 % of control
dose: 96.0 mg/kg/injection, schedule: Q01DX001 (ip), vehicle: water
  T/C: 238 % of control and 329 % of control
dose: 100.0 mg/kg/injection, schedule: Q04DX002 (ip), vehicle: Klucel (hydroxypropylcellulose) (HPC)
  T/C: 89 % of control
dose: 100.0 mg/kg/injection, schedule: Q04DX002 (ip), vehicle: water
  T/C: 445 % of control
dose: 128.0 mg/kg/injection, schedule: Q01DX001 (ip), vehicle: saline with Tween-80
  T/C: 77 % of control and 89 % of control
dose: 128.0 mg/kg/injection, schedule: Q08DX002 (ip), vehicle: saline
  T/C: 98 % of control

## C/C(=N\NC(N)=O)C1=C(O)C(C(C)C)NC1=O (stereo unspecified)
dose: 50.0 mg/kg/injection, schedule: Q01DX009 (ip), vehicle: saline with Tween-80
  T/C: 93 % of control
dose: 100.0 mg/kg/injection, schedule: Q01DX009 (ip), vehicle: saline with Tween-80
  T/C: 99 % of control
dose: 200.0 mg/kg/injection, schedule: Q01DX009 (ip), vehicle: saline with Tween-80
  T/C: 92 % of control
dose: 400.0 mg/kg/injection, schedule: Q01DX009 (ip), vehicle: saline with Tween-80
  T/C: 99 % of control

## COCC(=O)C(C(C)=O)C(c1ccc2c(c1)OCO2)C(C(C)=O)C(=O)COC (stereo unspecified)
dose: 100.0 mg/kg/injection, schedule: Q04DX003 (ip), vehicle: saline with Tween-80
  T/C: 90 % of control
dose: 200.0 mg/kg/injection, schedule: Q04DX003 (ip), vehicle: saline with Tween-80
  T/C: 90 % of control
dose: 400.0 mg/kg/injection, schedule: Q04DX003 (ip), vehicle: saline with Tween-80
  T/C: 95 % of control

## O=[N+]([O-])c1cc(Cl)c(Cl)cc1NS(=O)(=O)c1ccccc1
dose: 150.0 mg/kg/injection, schedule: Q01DX009 (ip), vehicle: saline with Tween-80
  T/C: 90 % of control
dose: 150.0 mg/kg/injection, schedule: Q04DX003 (ip), vehicle: saline with Tween-80
  T/C: 100 % of control
dose: 300.0 mg/kg/injection, schedule: Q01DX009 (ip), vehicle: saline with Tween-80
  T/C: 100 % of control
dose: 300.0 mg/kg/injection, schedule: Q04DX003 (ip), vehicle: saline with Tween-80
  T/C: 100 % of control
dose: 600.0 mg/kg/injection, schedule: Q04DX003 (ip), vehicle: saline with Tween-80
  T/C: 95 % of control

## CCCCCCCCCCCCCCCc1cccc(OC)c1C(=O)O
dose: 7.5 mg/kg/injection, schedule: Q01DX009 (ip), vehicle: saline with Tween-80
  T/C: 107 % of control
dose: 15.0 mg/kg/injection, schedule: Q01DX009 (ip), vehicle: saline with Tween-80
  T/C: 113 % of control
dose: 30.0 mg/kg/injection, schedule: Q01DX009 (ip), vehicle: saline with Tween-80
  T/C: 116 % of control

## CCOC(=O)C1C(=O)C(CN(CCCl)CCCl)C(=O)C(C(=O)OCC)C1c1ccc(O)cc1 (stereo unspecified)
dose: 4.6 micrograms/kg/injection, schedule: Q01DX009 (ip), vehicle: Klucel (hydroxypropylcellulose) (HPC)
  T/C: 104 % of control
dose: 9.0 micrograms/kg/injection, schedule: Q01DX009 (ip), vehicle: Klucel (hydroxypropylcellulose) (HPC)
  T/C: 109 % of control
dose: 18.7 micrograms/kg/injection, schedule: Q01DX009 (ip), vehicle: Klucel (hydroxypropylcellulose) (HPC)
  T/C: 109 % of control
dose: 37.5 micrograms/kg/injection, schedule: Q01DX009 (ip), vehicle: Klucel (hydroxypropylcellulose) (HPC)
  T/C: 116 % of control

## CC[N+](C)(CC)CCNC(=O)Nc1ccc(-c2ccc(NC(=O)NCC[N+](C)(CC)CC)c(OC)c2)cc1OC
dose: 6.25 mg/kg/injection, schedule: Q01DX009 (ip), vehicle: saline
  T/C: 98 % of control
dose: 12.5 mg/kg/injection, schedule: Q01DX009 (ip), vehicle: saline
  T/C: 96 % of control
